Data on one compound can be found in patent US20050153967A1, “Pharmaceutical compositions comprising 2-(4-ethoxy-phenyl)-3-(4-methanesulfonyl-phenyl)-pyrazolo'1,5-bipyridazine in nanoparticulate form” (priority 2002, published 2005).

The nature of series [1]: Dissolution testing (in vitro prediction of bioavailability). It is filed as physicochemical. The source says:
Dissolution testing is a well established technique for obtaining a correlation between in vitro and in vivo data in relation to compound bioavailability. […] As a result attempts were made to improve the bioavailability of compound (I). WO01/41760 (Pharmacia Corporation) discloses that the bioavailability of selective COX-2 inhibitory drugs of low water solubility may be enhanced by reducing the drug particle size, such that a substantial proportion are smaller than 1 μm.

Another series deals with T1, cyclooxygenase-2 (COX-2) (Homo sapiens, UniProt P35354).
T1 sequence (P35354 18-604): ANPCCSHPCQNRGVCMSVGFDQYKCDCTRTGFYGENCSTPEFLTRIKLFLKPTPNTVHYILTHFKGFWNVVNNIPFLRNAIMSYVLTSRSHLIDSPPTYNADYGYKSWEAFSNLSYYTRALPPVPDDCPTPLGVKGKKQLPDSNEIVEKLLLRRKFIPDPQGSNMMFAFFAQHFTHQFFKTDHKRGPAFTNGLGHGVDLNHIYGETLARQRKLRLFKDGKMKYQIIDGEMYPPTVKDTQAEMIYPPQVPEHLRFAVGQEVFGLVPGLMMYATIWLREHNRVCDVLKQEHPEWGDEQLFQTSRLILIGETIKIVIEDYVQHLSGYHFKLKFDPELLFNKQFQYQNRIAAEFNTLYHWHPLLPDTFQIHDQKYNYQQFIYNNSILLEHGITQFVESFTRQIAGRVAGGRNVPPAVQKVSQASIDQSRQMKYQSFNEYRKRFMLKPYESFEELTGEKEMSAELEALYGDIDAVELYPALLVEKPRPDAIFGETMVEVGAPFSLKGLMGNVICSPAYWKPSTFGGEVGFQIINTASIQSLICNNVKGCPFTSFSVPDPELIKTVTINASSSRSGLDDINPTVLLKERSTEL
The settings on record: cited from earlier work.

`CCOc1ccc(-c2nn3ncccc3c2-c2ccc(S(C)(=O)=O)cc2)cc1` [compound (I), 2-(4-ethoxy-phenyl)-3-(4-methanesulfonyl-phenyl)-pyrazolo[1,5-b]pyridazine]: the “dissolution, indicated bioavailability” value in series [1] (co-formulation with HPMC-AS in an amorphous dispersion) is on record as “enhanced”. For the same compound, in series [1] (compound (I) in micronised form, preliminary dissolution experiments), the “dissolution, predicted bioavailability” value is listed as “poorly bioavailable”. The dissolution profile entry in series [1] (pharmaceutical composition with compound (I) in nanoparticulate form) was “poor dissolution profile”. The “inhibition of cyclooxygenase-2 (COX-2)” value on cyclooxygenase-2 (COX-2) is “potent and selective inhibitor”.
